Experimental data published in patent US12558428B2, “Heterobifunctional compounds and their use in treating disease” (Halda Therapeutics OpCo, Inc., priority 2024, dated 2026).
Read-outs that look alike come from different tables or passages of the source.

What was measured:
[1] = tested on: T-Rex 293 cells having increased expression of estrogen receptor alpha protein; assay: Cellular growth inhibition assay, T-Rex 293 cells, (+) doxycycline; assay type: cell-based; settings: T-REx-293, 72 h, 72 hours
Experimental: (§1) Exemplary compounds were tested for the ability to inhibit the proliferation of the following types of cells: (i) a T-Rex 293 cell line having increased expression of estrogen receptor alpha protein from exposure to doxycycline and (ii) a T-Rex 293 cell line lacking increased expression of estrogen receptor alpha protein.
(§2) The following types of cells were prepared for this experiment: (i) a T-Rex 293 cell line having increased expression of estrogen receptor alpha protein from exposure to doxycycline and (ii) a T-Rex 293 cell line lacking increased expression of estrogen receptor alpha protein. The ability of the test compounds to inhibit proliferation of the foregoing cell types was evaluated according to the procedures set forth below.
(§3) The doxycycline-inducible estrogen receptor alpha protein expressing cell line was established using the following protocol: T-Rex 293 cells were purchased from Invitrogen (Cat #R71007) and transfected using Lipofectamine 2000 with the wild-type estrogen receptor alpha protein sequence cloned into the pcDNA4/TO vector. Transfected cells were selected using 400 μg/mL Zeocin (Invitrogen Cat #R25001). Following selection, single clones were raised and maintained in Dulbecco's Modified Eagle Medium (DMEM) supplemented with 10% w/w Tetracycline-free fetal bovine serum (FBS) and 250 μg/mL Zeocin. Clones were analyzed for expression of estrogen receptor alpha protein in the presence and absence of 3 ng/mL doxycycline (Sigma Cat #D9891), and a single doxycycline-inducible clone (hereinafter “SC”) was selected for use in downstream assays.
(§4) The SC cells were seeded on poly-D-lysine coated, black clear-bottom 384-well plates at 2500/well, in 25 μL Phenol Red Free Dulbecco's Modified Eagle Medium (DMEM) supplemented with 10% w/w charcoal-dextran treated fetal bovine serum (FBS) and 1% w/w pen-strep, with or without 3 ng/mL doxycycline. Pen-Strep is a commercially available mixture of penicillin G and streptomycin, which is used in mammalian cell culture media to prevent bacterial contamination. Phenol Red Free Dulbecco's Modified Eagle Medium (DMEM) supplemented with 10% w/w charcoal-dextran treated fetal bovine serum (FBS) and 1% w/w pen-strep, with or without 3 ng/mL doxycycline is herein referred to as Treatment Medium. Following seeding of cells in the plates, the plates were spun at 300×g for 30 seconds, then equilibrated to room temperature for 30 minutes, and then deposited in a humidified tissue culture incubator maintained at 37° C. with 5% CO2.
(§5) At 24 hours after seeding of the cells, dilutions of test compound were prepared in DMSO and dissolved in Treatment Medium, to achieve a final DMSO concentration of 0.5% w/w, thereby providing the Test Compound Solution. A 25 μL aliquot of the Test Compound Solution was added to cells in the well plates. An equal volume of a solution containing DMSO and Treatment Medium was used as a negative control. Following treatment of cells with Test Compound Solution or said equal volume of a solution containing DMSO and Treatment Medium, the plates were spun at 300×g for 30 seconds, and then left in an incubator for 72 hours.
(§6) At the end of the treatment duration, cell viability was quantified with CellTiter-Glo 2.0 reagent (Promega Cat #G9243). For this purpose, plates were equilibrated to room temperature for 30 minutes, and then 25 μL of CellTiter-Glo 2.0 reagent was added to cells in the plate wells. Plates were then agitated on a shaker for two minutes at 500 rpm and subsequently incubated at room temperature for 10 minutes. Following incubation, the plates were spun at 3000×g for 30 seconds, then sealed with an optical adhesive cover, and luminescence readings were measured with an EnVision Plate Reader (Perkin Elmer).
(§7) Data was normalized using zero luminescence for baseline. […]

[2] = tested on: T-Rex 293 cells lacking increased expression of estrogen receptor alpha protein; assay: Cellular growth inhibition assay, T-Rex 293 cells, (−) doxycycline; assay type: cell-based; settings: T-REx-293, 72 h, 72 hours
Experimental: as §1, §2, §3, §4, §5, §6, §7

[3] = Table 7-A, T-Rex 293 cells with doxycycline (increased ERα expression), CellTiter-Glo, read-out: (+) Dox GI50
[4] = Table 7-A, T-Rex 293 cells without doxycycline (lacking increased ERα expression), CellTiter-Glo, read-out: (−) Dox GI50

COc1cc(N2CCN(CC3CCN(c4ccc(C5=N[C@@H](C)c6nnc(C)n6-c6sc(C)c(C)c65)cc4)CC3)CC2)c(F)cc1[C@@H]1c2ccc(O)cc2CC[C@@H]1c1ccc(F)cc1 [III-313]
GI50 [1, 3]: < 50 nM
GI50 [2, 4]: 500 to 2500 nM

Cc1sc2c(c1C)C(c1ccc(N3CCC(O)(CN4CCC(c5cc(F)c([C@@H]6c7ccc(O)cc7CC[C@@H]6c6ccc(F)cc6)c(F)c5)CC4)CC3)cc1F)=N[C@@H](C)c1nnc(C)n1-2 [III-338, 4-((4-(3,5-difluoro-4-((1S,2S)-2-(4-fluorophenyl)-6-hydroxy-1,2,3,4-tetrahydronaphthalen-1-yl)phenyl)piperidin-1-yl)methyl)-1-(3-fluoro-4-((6S)-2,3,6,9-tetramethyl-6H-thieno[3,2-f][1,2,4]triazolo[4,3-a][1,4]diazepin-4-yl)phenyl)piperidin-4-ol]
GI50 [1, 3]: < 50 nM
GI50 [2, 4]: 500 to 2500 nM

COc1cc(N2CCN(CC3(O)CCN(c4ccc(C5=N[C@@H](C)c6nnc(C)n6-c6sc(C)c(C)c65)cc4)CC3)CC2)ccc1[C@@H]1c2ccc(O)cc2CC[C@@H]1c1ccccc1 (single isomer, unassigned) [III-321]
GI50 [1, 3]: < 50 nM
GI50 [2, 4]: 500 to 2500 nM

Cc1sc2c(c1C)C(c1ccc(N3CCC(CN4CCN(c5ccc([C@H]6c7ccc(O)cc7CC[C@H]6c6ccccc6F)c(F)c5)CC4)CC3)cc1)=N[C@@H](C)c1nnc(C)n1-2 [III-324]
GI50 [1, 3]: 50 to 500 nM
GI50 [2, 4]: 50 to 500 nM

COc1cc(N2CCN(CC3CCN(c4ccc(C5=N[C@@H](C)c6nnc(C)n6-c6sc(C)c(C)c65)cc4)CC3)CC2)c(F)cc1[C@H]1c2ccc(O)cc2CC[C@H]1c1ccc(F)cc1 [III-314]
GI50 [1, 3]: 50 to 500 nM
GI50 [2, 4]: 500 to 2500 nM

Cc1sc2c(c1C)C(c1ccc(N3CCC(CN4CCN(c5ccc([C@@H]6c7ccc(O)cc7CC[C@@H]6c6ccccc6F)c(F)c5)CC4)CC3)cc1)=N[C@@H](C)c1nnc(C)n1-2 [III-323]
GI50 [1, 3]: < 50 nM
GI50 [2, 4]: 500 to 2500 nM

COc1cc(N2CCN(CC3CCN(c4ccc(C5=N[C@@H](C)c6nnc(C)n6-c6sc(C)c(C)c65)cc4)CC3)CC2)ccc1[C@@H]1c2ccc(O)cc2CC[C@@H]1c1ccc(C)cc1 [III-330]
GI50 [1, 3]: < 50 nM
GI50 [2, 4]: 50 to 500 nM

COc1cc(N2CCN(CC3CCN(c4ccc(C5=N[C@@H](C)c6nnc(C)n6-c6sc(C)c(C)c65)c(F)c4)CC3)CC2)ccc1[C@H]1c2ccc(O)cc2CC[C@H]1c1ccc(C)cc1 [III-331]
GI50 [1, 3]: 500 to 2500 nM
GI50 [2, 4]: 500 to 2500 nM

COc1cc(N2CCN(CC3(O)CCN(c4ccc(C5=N[C@@H](C)c6nnc(C)n6-c6sc(C)c(C)c65)c(F)c4)CC3)CC2)ccc1[C@H]1c2ccc(O)cc2CC[C@H]1c1ccc(F)cc1 (single isomer, unassigned) [III-327]
GI50 [1, 3]: 50 to 500 nM
GI50 [2, 4]: 50 to 500 nM

COc1ccc([C@@H]2CCc3cc(O)ccc3[C@@H]2c2ccc(N3CCN(CC4(O)CCN(c5ccc(C6=N[C@@H](C)c7nnc(C)n7-c7sc(C)c(C)c76)cc5)CC4)CC3)cc2Cl)cc1 (single isomer, unassigned) [III-335]
GI50 [1, 3]: 50 to 500 nM
GI50 [2, 4]: 500 to 2500 nM

Cc1sc2c(c1C)C(c1ccc(N3CC(N4CCN(CCOc5ccc([C@@H]6c7ccc(O)cc7CC[C@@H]6c6ccccc6)cc5)CC4)C3)cc1)=NC(Cc1ncco1)c1nnc(C)n1-2 (stereo partly shown) [III-41]
GI50 [1, 3]: < 50 nM
GI50 [2, 4]: 50 to 500 nM

Cn1cc(-c2cc(C(C)(C)O)ccc2Oc2ccc(N3CCN(CC4CCN(c5ccc([C@@H]6c7ccc(O)cc7CC[C@@H]6c6ccccc6)cc5)CC4)CC3)cc2)c2cc[nH]c2c1=O [I-18, 4-(2-(4-(4-((1-(4-((1R,2S)-6-hydroxy-2-phenyl-1,2,3,4-tetrahydronaphthalen-1-yl)phenyl)piperidin-4-yl)methyl)piperazin-1-yl)phenoxy)-5-(2-hydroxypropan-2-yl)phenyl)-6-methyl-1,6-dihydro-7H-pyrrolo[2,3-c]pyridin-7-one]
GI50 ([1]; T-Rex 293 cells with doxycycline-induced ERα expression, CellTiter-Glo 2.0, read-out: (+) Dox TRex ERa (GI50)): < 50 nM
GI50 ([2]; T-Rex 293 cells without doxycycline, CellTiter-Glo 2.0, read-out: (−) Dox TRex ERa (GI50)): 50 to 500 nM

COc1cc(N2CCN(CC3(O)CCN(c4ccc(C5=N[C@@H](C)c6nnc(C)n6-c6sc(C)c(C)c65)cc4)CC3)CC2)ccc1[C@H]1c2ccc(O)cc2CC[C@H]1c1ccccc1 (single isomer, unassigned) [III-322]
GI50 [1, 3]: 50 to 500 nM
GI50 [2, 4]: 50 to 500 nM

COc1cc(N2CCN(CC3(O)CCN(c4ccc(C5=N[C@@H](C)c6nnc(C)n6-c6sc(C)c(C)c65)cc4)CC3)CC2)c(F)cc1[C@@H]1c2ccc(O)cc2CC[C@@H]1c1ccc(F)cc1 [III-320]
GI50 [1, 3]: < 50 nM
GI50 [2, 4]: 500 to 2500 nM

COc1ccc([C@H]2CCc3cc(O)ccc3[C@H]2c2ccc(N3CCN(CC4(O)CCN(c5ccc(C6=N[C@@H](C)c7nnc(C)n7-c7sc(C)c(C)c76)cc5)CC4)CC3)cc2Cl)cc1 (single isomer, unassigned) [III-336]
GI50 [1, 3]: < 50 nM
GI50 [2, 4]: 500 to 2500 nM

Cc1sc2c(c1C)C(c1ccc(N3CCC(O)(CN4CCC(c5cc(F)c([C@H]6c7ccc(O)cc7CC[C@H]6c6ccc(F)cc6)c(F)c5)CC4)CC3)cc1F)=N[C@@H](C)c1nnc(C)n1-2 [III-337, 4-((4-(3,5-difluoro-4-((1R,2R)-2-(4-fluorophenyl)-6-hydroxy-1,2,3,4-tetrahydronaphthalen-1-yl)phenyl)piperidin-1-yl)methyl)-1-(3-fluoro-4-((6S)-2,3,6,9-tetramethyl-6H-thieno[3,2-f][1,2,4]triazolo[4,3-a][1,4]diazepin-4-yl)phenyl)piperidin-4-ol]
GI50 [1, 3]: 50 to 500 nM
GI50 [2, 4]: 500 to 2500 nM

COc1cc(N2CCN(CC3CCN(c4ccc(C5=N[C@@H](C)c6nnc(C)n6-c6sc(C)c(C)c65)cc4)CC3)CC2)ccc1[C@@H]1c2ccc(O)cc2CC[C@@H]1c1ccc(F)cc1 [III-316]
GI50 [1, 3]: < 50 nM
GI50 [2, 4]: 500 to 2500 nM

COc1cc(N2CCN(CC3CCN(c4ccc(C5=N[C@@H](C)c6nnc(C)n6-c6sc(C)c(C)c65)c(F)c4)CC3)CC2)ccc1[C@@H]1c2ccc(O)cc2CC[C@@H]1c1ccc(C)cc1 [III-332]
GI50 [1, 3]: < 50 nM
GI50 [2, 4]: 50 to 500 nM

COc1cc(N2CCN(CC3(O)CCN(c4ccc(C5=N[C@@H](C)c6nnc(C)n6-c6sc(C)c(C)c65)c(F)c4)CC3)CC2)ccc1[C@@H]1c2ccc(O)cc2CC[C@@H]1c1ccc(F)cc1 [III-328, 1-(3-fluoro-4-((6S)-2,3,6,9-tetramethyl-6H-thieno[3,2-f][1,2,4]triazolo[4,3-a][1,4]diazepin-4-yl)phenyl)-4-((4-(4-((1S,2S)-2-(4-fluorophenyl)-6-hydroxy-1,2,3,4-tetrahydronaphthalen-1-yl)-3-methoxyphenyl)piperazin-1-yl)methyl)piperidin-4-ol]
GI50 [1, 3]: < 50 nM
GI50 [2, 4]: 500 to 2500 nM

Cc1sc2c(c1C)C(c1ccc(N3CCC(CN4CCN(c5ccc([C@@H]6c7ccc(O)cc7CC[C@@H]6c6cccc(F)c6)c(F)c5)CC4)CC3)cc1)=N[C@@H](C)c1nnc(C)n1-2 [III-325]
GI50 [1, 3]: 50 to 500 nM
GI50 [2, 4]: 500 to 2500 nM

COc1cc(N2CCN(CC3(O)CCN(c4ccc(C5=N[C@@H](C)c6nnc(C)n6-c6sc(C)c(C)c65)cc4)CC3)CC2)ccc1[C@H]1c2ccc(O)cc2CC[C@H]1c1ccc(F)cc1F (single isomer, unassigned) [III-333]
GI50 [1, 3]: 50 to 500 nM
GI50 [2, 4]: 500 to 2500 nM

COc1cc(N2CCN(CC3CCN(c4ccc(C5=N[C@@H](C)c6nnc(C)n6-c6sc(C)c(C)c65)cc4)CC3)CC2)ccc1[C@H]1c2ccc(O)cc2CC[C@H]1c1ccc(F)cc1 [III-315]
GI50 [1, 3]: 500 to 2500 nM
GI50 [2, 4]: 500 to 2500 nM

Cc1sc2c(c1C)C(c1ccc(N3CCC(CN4CCN(c5ccc([C@H]6c7ccc(O)cc7CC[C@H]6c6cccc(F)c6)c(F)c5)CC4)CC3)cc1)=N[C@@H](C)c1nnc(C)n1-2 [III-326]
GI50 [1, 3]: 500 to 2500 nM
GI50 [2, 4]: 500 to 2500 nM
